The subject of one assay is MDA-MB-231. Briefly: Growth inhibition of human MDA-MB-231 cells after 48 hrs by SRB assay. Particulars: MDA-MB-231, 48 h. The class given is functional. For orientation: Sulforhodamine B stains cellular protein and so reports cell mass.
The test system of the next assay is Malme-3M. Briefly: Growth inhibition of human MALME-3M cells after 48 hrs by SRB assay. The class given is functional.
The subject of the next assay is ACHN. Briefly: Growth inhibition of human ACHN cells after 48 hrs by SRB assay. It counts as functional.
Assay [1] in a line: Growth inhibition of human IGROV1 cells after 48 hrs by SRB assay. The class given is functional. The settings on record: IGROV-1, 48 h.
The next assay has as its system SN12C. Briefly: Growth inhibition of human SN12C cells after 48 hrs by SRB assay. The class given is functional.
Assay [2] can be described thus: Growth inhibition of human UO31 cells after 48 hrs by SRB assay. The settings on record: UO-31, 48 h. The class given is functional.
A short description of assay [3]: Growth inhibition of human UACC62 cells after 48 hrs by SRB assay. Particulars: UACC-62, 48 h. The class given is functional.
Another assay concerns SK-MEL-28. Kind of assay: Growth inhibition of human SK-MEL-28 cells after 48 hrs by SRB assay. It counts as functional. Particulars: SK-MEL-28, 48 h, read-out: LC50 (the source's name).
Assay [4] can be described thus: Growth inhibition of human SNB19 cells after 48 hrs by SRB assay. The settings on record: SNB-19, 48 h. It counts as functional.
The subject of the next assay is NCI-H322M. Kind of assay: Growth inhibition of human NCI-H322M cells after 48 hrs by SRB assay. It counts as functional.
A short description of assay [5]: Antiangiogenic activity in human PC3 cells assessed as reduction in FGF-beta levels at […] +/- […] uM after 72 hrs by ELISA relative to control. It counts as functional, PC-3. Further details: scale not given: the % may be the effect or the level left. For orientation: In an ELISA, binding on a coated surface is turned into a signal by an enzyme label.
Assay [6] can be described thus: Antiangiogenic activity in human PC3 cells assessed as reduction in TNF-alpha levels at […] +/- […] uM after 72 hrs by ELISA relative to control. The class given is functional, PC-3. Further details: scale not given: the % may be the effect or the level left.
The nature of assay [7]: Antiangiogenic activity in human PC3 cells assessed as reduction in leptin levels at […] +/- […] uM after 72 hrs by ELISA relative to control. The class given is functional, PC-3. The arrangement: scale not given: the % may be the effect or the level left.
Assay [8] can be described thus: Antiangiogenic activity in human PC3 cells assessed as reduction in IGF-1 levels at […] +/- […] uM after 72 hrs by ELISA relative to control. The class given is functional, PC-3. The arrangement: scale not given: the % may be the effect or the level left.
A short description of assay [9]: Cytotoxicity against human PC3 cells after 72 hrs by SRB assay. The settings on record: PC-3, 72 h.
Assay [10] is described as follows: Antiangiogenic activity in human PC3 cells assessed as reduction in TGF-beta levels at […] +/- […] uM after 72 hrs by ELISA relative to control. It counts as functional, PC-3. Further details: scale not given: the % may be the effect or the level left.
A further assay concerns HUVEC. Briefly: Antiproliferative activity against HUVEC after 72 hrs by AlamarBlue assay. Particulars: Homo sapiens.
Assay [11] can be described thus: Antiangiogenic activity in human PC3 cells assessed as reduction in VEGF levels at […] +/- […] uM after 72 hrs by ELISA relative to control. It counts as functional, PC-3. The arrangement: scale not given: the % may be the effect or the level left.
Where [12] appears, read: read-out: LC50 (the source's name).

As usually defined, the GI50 is the concentration at which growth is held to half of that of the control. Usually TGI stands for the concentration at which net growth stops. By IC50 is commonly meant the point on the concentration scale where inhibition reaches its midpoint.

`COc1ccc(Nc2nccc(Nc3ccc4[nH]ncc4c3)n2)cc1`: the concentration for 50% growth inhibition (GI50) with MDA-MB-231 came to 2.69 µM; in the assay on Malme-3M it was 3.27 µM; with ACHN it was 2.89 µM; in [1], 3.36 µM; in the assay on SN12C, 3.92 µM; in [2] it was 2.12 µM. The values for the 50% growth inhibitory concentration (GI50) (in assay [3]; in [4]; in the assay with NCI-H322M) were 1.93 µM, 4.3 µM and 4.48 µM, respectively. Moreover, the TGI with MDA-MB-231 is 5.36 µM; with Malme-3M it was 15.9 µM; in the assay with ACHN it was 11.7 µM; in assay [1] it was 25.1 µM; in the assay on SN12C, greater than 100 µM; in assay [2], 11.4 µM. The TGI in [3] turned out to be 16.9 µM; in [4], 87 µM; in the assay with NCI-H322M, 38.2 µM. Besides, the CC50 is greater than 100 µM with MDA-MB-231 (setting [12]); greater than 100 µM in the assay with Malme-3M (setting [12]); 45 µM with ACHN (setting [12]); greater than 100 µM in assay [1] (setting [12]); greater than 100 µM in the assay with SN12C (setting [12]); 33.8 µM in [2] (setting [12]). Besides, the CC50 (in assay [3] (setting [12]); with SK-MEL-28; in assay [4] (setting [12]); in the assay on NCI-H322M (setting [12])) was greater than 100 µM each time.

For the compound `NS(=O)(=O)c1ccc(Nc2nccc(Nc3ccc4[nH]ncc4c3)n2)cc1`, the Activity came to 28.4% in assay [5]; 36% in assay [6]; 24.5% in assay [7]; 39.5% in [8]; 32.2% in assay [10]; 37.6% in assay [11]. Also, the IC50 in assay [9] turned out to be 33.8 µM; in the assay on HUVEC, 1.37 µM.

The values are drawn from ChEMBL document CHEMBL3817755, “Design, synthesis and biological evaluation of indazolepyrimidine based derivatives as anticancer agents with anti-angiogenic and antiproliferative activities” (Medchemcomm, 2016).
